Measured values as given in patent US20260217652A1, “PHENYL-SUBSTITUTED HETEROARYL COMPOUND AND PHARMACEUTICAL COMPOSITION COMPRISING SAME, PREPARATION METHOD THEREFOR AND USE THEREOF” (SHANGHAI MEIYUE BIOTECH DEVELOPMENT CO., LTD., priority 2023, published 2026).
Read-outs that look alike come from different tables or passages of the source.

Columns and labels:
[1] = tested on: TNF-α in human PBMC cells; test: In vitro TNF-α activity assay in human PBMC cell supernatant (LPS, ELISA); assay type: cell-based; conditions: LPS 100 ng/mL, read-out: p38 MAPK/TNF-α IC50
Protocol: The inhibitory effect of the compound on TNF-α in the supernatant of human PBMC cells was evaluated using an ELISA detection kit (Beyotime, PI518). The test compound was dissolved in DMSO to obtain a 10 mM stock solution and stored at −20° C. for future use. The initial concentration of the compound was […], followed by 5-fold serial dilution to obtain 6 concentrations. Cells were plated in duplicate, and ELISA was performed in single wells. The final concentration of DMSO was 0.4%. Alternatively, the initial concentration of the compound, dilution factor, number of concentration gradients, and replicates could be adjusted based on the specific screening conditions.
Fresh human peripheral blood mononuclear cells (PBMCs) (Sailybio) were seeded at a density of 2×10^5 cells per well in a 96-well plate (Corning, 3599), with each well containing 100 μL of RPMI-1640 (Gibco #A1049101)+10% FBS (Gibco, 10099141C), and incubated overnight at 37° C. under 5% CO2. Test compounds were added to the 96-well culture plate at a volume of 25 μL per well. After 1 hour, 5 μL of LPS was added to achieve a final concentration of 100 ng/mL. No LPS and compound were added to the negative control wells, and no compound was added to the positive control wells. The mixture was further incubated for 24 hours at 37° C. under 5% CO2. Subsequently, the cell culture supernatant was collected by centrifugation at 500 rcf for 8 minutes. The concentration of TNF-α was measured according to the operation manual of the ELISA kit. The concentration-effect curve was fitted using GraphPad Prism 8 software, and the compound concentration resulting in 50% inhibition, IC50, was calculated.

p38 MAPK/MK2 = target: T1, p38 MAPK/MK2 (Homo sapiens, UniProt Q16539); test: In vitro activity assay of p38 MAPK/MK2 (Z-LYTE kinase assay kit); assay type: biochemical; conditions: active p38α, inactive MK2, Ser/Thr 4; 1-hour reaction at 20° C.
T1 construct: purchased Carna (p38α); Abcam (MK2) 04-152; 79910
Protocol: The inhibitory effect of the compound on p38 MAPK/MK2 was evaluated using the Z-LYTE kinase assay kit (Thermo, PV3177). The test compound was dissolved in DMSO to obtain a 10 mM stock solution and stored at −20° C. for future use. The initial concentration of the compound was […], with 1% DMSO, 5-fold serial dilution, 8 concentrations, and duplicate wells. […] After a 1-hour reaction at 20° C., Development Reagent A diluted 2048-fold was added to each well, followed by incubation at room temperature for 1 hour. The reaction was terminated by adding 5 μL of stop buffer, and the plate was read using a microplate reader (Ex. 400 nm, Em. 445 nm; Ex. 400 nm, Em. 520 nm). The concentration-effect curve was fitted using GraphPad Prism 8 software, and the compound concentration resulting in 50% inhibition, IC50, was calculated.

[2] = In vitro liver microsome stability, mouse; assay type: in vitro ADME; conditions: liver microsomes, 0.5 mg/mL microsomes, 1 μM compound, NADPH, 37° C., read-out: Mouse liver microsomes Half-life T1/2
Protocol: (§1) The reference compound used in this experiment was Ketanserin, and the final concentration of microsomes in the experimental system was 0.5 mg/mL. The PBS buffer was a 50 mM K2HPO4 buffer. The concentration of the test compound was 1 μM. The microsomes were added to PBS, and the control/test compounds were respectively added to the corresponding reaction systems, mixed thoroughly, and pre-incubated in a 37° C. water bath for 5 minutes. The reaction was initiated by adding 20 mM NADPH solution under 37° C. water bath conditions (for the No NADPH samples, an equal volume of PBS solution was used as a substitute for the 20 mM NADPH solution). At the reaction time points of 0 min, 10 min, 30 mun, 60 min, and 90 min, 30 μL of reaction samples were taken from each reaction system (for the No NADPH samples, sampling was performed at 0 min and 90 min), and the reaction was immediately terminated by adding 300 μL of the internal standard acetonitrile solution. After centrifugation at 4000 rpm, the supernatant was taken and mixed thoroughly with an equal volume of pure water. The samples at each time point were analyzed by LC-MS/MS (AB Triple Quard 5500) to determine the compound content, and the T1/2 was calculated.

[3] = In vitro liver microsome stability, rat; assay type: in vitro ADME; conditions: liver microsomes, 0.5 mg/mL microsomes, 1 μM compound, NADPH, 37° C., read-out: Rat liver microsomes Half-life T1/2
Protocol: as §1

[4] = In vitro liver microsome stability, human; assay type: in vitro ADME; conditions: liver microsomes, 0.5 mg/mL microsomes, 1 μM compound, NADPH, 37° C., read-out: Human liver microsomes Half-life T1/2
Protocol: as §1

[5] = Pharmacokinetic evaluation in mice; assay type: in vivo; conditions: mouse, plasma; for AUC(0-t): read-out: Area under curve AUC0-24 h; for half-life: read-out: Half-life T1/2 (converted)
Protocol: The compound was weighed and dissolved in a mixed solvent of DMAC: Solutol: PBS (1:1:8. After intravenous/gastric administration to mice, whole blood ([…]) was collected at 0.083, 0.25, 0.5, 1, 2, 4, 7, and 24 hours. The samples were anticoagulated with EDTA-K2, immediately centrifuged at 4000 rpm for 5 minutes at 4° C., and the supernatant was frozen in a −80° C. refrigerator. Plasma sample processing: The samples were precipitated with an internal standard-containing CH3CN precipitant, followed by centrifugation at 12700 rpm for 10 min. The supernatant was collected and analyzed by LC-MS/MS (AB Triple Quard 5500) to obtain the plasma drug concentration. The parameters were calculated using a non-compartmental model in Winnolin version 8.1.

[6] = intravenous injection group 1 mg/kg
[7] = po, intragastric administration group 5 mg/kg

T1 sequence (Q16539 whole entry): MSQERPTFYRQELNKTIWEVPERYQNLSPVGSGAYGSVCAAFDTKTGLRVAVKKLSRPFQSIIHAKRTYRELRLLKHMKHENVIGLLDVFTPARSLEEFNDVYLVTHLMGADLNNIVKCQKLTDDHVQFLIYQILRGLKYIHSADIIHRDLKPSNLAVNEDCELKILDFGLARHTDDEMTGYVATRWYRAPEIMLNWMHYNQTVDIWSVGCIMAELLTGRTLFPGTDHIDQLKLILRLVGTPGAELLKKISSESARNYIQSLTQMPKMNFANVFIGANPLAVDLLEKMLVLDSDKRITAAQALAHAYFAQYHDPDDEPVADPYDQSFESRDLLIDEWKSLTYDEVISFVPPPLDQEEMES
T1 sequence (P49137 whole entry partner): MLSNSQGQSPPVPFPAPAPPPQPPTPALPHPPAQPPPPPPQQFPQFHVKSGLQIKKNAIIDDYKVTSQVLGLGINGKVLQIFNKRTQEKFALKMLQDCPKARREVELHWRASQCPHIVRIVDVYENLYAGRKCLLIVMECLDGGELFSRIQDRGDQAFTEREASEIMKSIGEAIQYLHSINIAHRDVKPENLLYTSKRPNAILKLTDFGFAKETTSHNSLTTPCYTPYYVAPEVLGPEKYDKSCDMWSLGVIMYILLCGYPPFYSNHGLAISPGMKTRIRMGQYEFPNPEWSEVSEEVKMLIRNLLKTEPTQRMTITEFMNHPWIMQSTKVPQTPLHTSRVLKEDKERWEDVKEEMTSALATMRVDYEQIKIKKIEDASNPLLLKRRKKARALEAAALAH

Row | SMILES | IC50 (p38 MAPK/MK2) [nM] | half-life at 1 μM [4] [h] | IC50 ([1]; Homo sapiens, PBMC, 24 h) [nM] | also measured
1 | Cc1cnc(-c2cccc(S(C)(=O)=O)c2)cc1-n1c(C)cc(OCc2ncc(F)cc2F)c(Cl)c1=O [Compound 11] | 14.6 | > 4.66 | 18.4 | half-life at 1 μM [2]: 4.22 h; half-life at 1 μM [3]: 3.79 h
2 | CNC(=O)c1cccc(-c2cc(-n3c(C)cc(OCc4ncc(F)cc4F)c(Cl)c3=O)c(C)cn2)c1F [Compound 20] | 1.03 |  |  | IC50 ([1]; 24 hours): 8.68 nM
3 | Cc1cnc(-c2cccc([C@@](C)(O)CO)c2F)c(F)c1-n1c(C)cc(OCc2ncc(F)cc2F)c(Cl)c1=O [Compound 112-P1] | 0.13 | > 4.66 | 0.44 | 
4 | Cc1cnc(-c2cccc(C(C)(C)CO)c2F)cc1-n1c(C)cc(OCc2ncc(F)cc2F)c(Cl)c1=O [Compound 137] | 11.7 |  | 0.84 | 
5 | Cc1cc(OCc2ncc(F)cc2F)c(Cl)c(=O)n1-c1ccnc(-c2cccc(C(C)(C)O)c2F)c1 [Compound 141] | 0.794 |  | 14.1 | half-life at 1 μM [2]: > 4.66 h; half-life at 1 μM [3]: 2.51 h
6 | CC[C@](O)(CO)c1cccc(-c2cc(-n3c(C)cc(OCc4ncc(F)cc4F)c(Cl)c3=O)c(C)cn2)c1F [Compound 147] | 7.94 |  |  | 
7 | COC[C@](C)(O)c1cccc(-c2cc(-n3c(C)cc(OCc4ncc(F)cc4F)c(Cl)c3=O)c(C)cn2)c1F [Compound 148-P1] | 15.9 |  |  | 
8 | Cc1cnc(-c2cccc([C@@H](O)CO)c2F)cc1-n1c(C)cc(OCc2ncc(F)cc2F)c(Cl)c1=O [Compound 151-P1] | 1.56 |  | 12.9 | 
9 | COc1cnc(-c2cccc([C@@](C)(O)CO)c2F)cc1-n1c(C)cc(OCc2ncc(F)cc2F)c(Cl)c1=O [Compound 154] | 20.6 |  |  | 
10 | COc1cnc(-c2cccc(C(C)(C)O)c2F)cc1-n1c(C)cc(OCc2ncc(F)cc2F)c(Cl)c1=O [Compound 155] | 3.49 |  |  | 
11 | Cc1cc(OCc2ncc(F)cc2F)c(Cl)c(=O)n1-c1ccnc(-c2cccc(C3(CO)CC3)c2F)c1 [Compound 156] | 0.336 |  |  | 
12 | Cc1cnc(-c2ccnc(C(C)(C)O)n2)cc1-n1c(C)cc(OCc2ncc(F)cc2F)c(Cl)c1=O [Compound C, reference compound] |  |  | 26.4 | 

The next lines start with results.

Row | IC50 (p38 MAPK/MK2) [nM] | half-life at 1 μM [4] [h] | SMILES | IC50 ([1]; Homo sapiens, PBMC, 24 h) [nM] | also measured
13 | 0.27 | > 4.66 | CNC(=O)c1cccc(-c2cc(-n3c(C)cc(OCc4ncc(F)cc4F)c(Cl)c3=O)c(C)cn2)c1F (single isomer, unassigned) [Compound 20-P2] |  | IC50 ([1]; 24 hours): 4.2 nM; half-life at 1 μM [2]: > 4.66 h; half-life at 1 μM [3]: > 4.66 h
14 | 0.056 |  | Cc1cnc(-c2cccc(S(C)(=O)=O)c2)c(F)c1-n1c(C)cc(OCc2ncc(F)cc2F)c(Cl)c1=O [Compound 33-P1] | 2.93 | AUC(0-t) [5, 6]: 1580 ng·h/mL; clearance ([5]; intravenous injection group 1 mg/kg, read-out: Clearance CL (converted)): 10.8 mL/min/kg; half-life [5, 6]: 0.98 h; C0 ([5]; intravenous injection group 1 mg/kg, read-out: Initial concentration C0): 3200 ng/mL; Vd ([5]; intravenous injection group 1 mg/kg, read-out: Volume of distribution Vd): 0.32 L/kg; AUC(0-t) [5, 7]: 2800 ng·h/mL; bioavailability ([5]; po, intragastric administration group 5 mg/kg, read-out: Bioavailability F %): 36.9%; half-life [5, 7]: 1.99 h; Cmax ([5]; po, intragastric administration group 5 mg/kg, read-out: Maximum concentration Cmax): 3670 ng/mL
15 | 0.38 | > 4.66 | Cc1cnc(-c2ccc(F)c(C(C)(C)O)c2)c(F)c1-n1c(C)cc(OCc2ncc(F)cc2F)c(Cl)c1=O [Compound 70-P1] | 11.2 | 
16 | 2.11 | > 4.66 | Cc1cnc(-c2ccc(F)c(C(C)(C)O)c2)cc1-n1c(C)cc(OCc2ncc(F)cc2F)c(Cl)c1=O [Compound 88-P2] |  | 
17 | 0.22 | > 4.66 | Cc1cnc(-c2ccc(F)c(C(C)(C)O)c2F)cc1-n1c(C)cc(OCc2ncc(F)cc2F)c(Cl)c1=O [Compound 111-P2] | 1.43 | half-life at 1 μM [2]: > 4.66 h; half-life at 1 μM [3]: > 4.66 h
18 | 0.09 | > 4.66 | Cc1cnc(-c2ccc(F)c([C@@](C)(O)CO)c2F)c(F)c1-n1c(C)cc(OCc2ncc(F)cc2F)c(Cl)c1=O [Compound 113-P1] | 1.7 | 
19 | 0.1 | > 4.66 | CNC(=O)C(C)(O)c1cc(-c2ncc(C)c(-n3c(C)cc(OCc4ncc(F)cc4F)c(Cl)c3=O)c2F)ccc1F (stereo not drawn) [Compound 124-P2] |  | 
20 | 0.15 | > 4.66 | Cc1cnc(-c2ccc(F)c(C(C)(O)C(N)=O)c2)c(F)c1-n1c(C)cc(OCc2ncc(F)cc2F)c(Cl)c1=O (stereo not drawn) [Compound 128-P1] |  | 
21 | 12.6 |  | Cc1cc(OCc2ncc(F)cc2F)c(Cl)c(=O)n1-c1ccnc(-c2ccc(F)c([C@@](C)(O)CO)c2F)c1 [Compound 144] |  | 
22 | 1.19 | > 4.66 | [2H]C([2H])(Oc1cc(C)n(-c2cc(-c3ccc(F)c([C@@](C)(O)CO)c3F)ncc2C)c(=O)c1Cl)c1ncc(F)cc1F [Compound 145-P1] | 8.51 | half-life at 1 μM [2]: > 4.66 h; half-life at 1 μM [3]: > 4.66 h
23 | 1.43 | > 4.66 | [2H]C([2H])(Oc1cc(C)n(-c2cc(-c3cccc([C@@](C)(O)CO)c3F)ncc2C)c(=O)c1Cl)c1ncc(F)cc1F [Compound 146-P1] | 3.38 | half-life at 1 μM [2]: 2.29 h; half-life at 1 μM [3]: > 4.66 h
24 | 8.59 |  | CNCC(C)(O)c1cccc(-c2cc(-n3c(C)cc(OCc4ncc(F)cc4F)c(Cl)c3=O)c(C)cn2)c1F (stereo not drawn) [Compound 150] |  | 
